These results are taken from patent US20070128217A1 (priority 2003, published 2007).

Assay [1] relates to antibodies in sera from SARS patients (sera 1a, 1b, 2, 6, 37, 62, London, SARS-yellow, SARS-green). It counts as binding, human. More on the design: Binding of serum 6 to linear peptides of protein X1 of SARS-CoV Urbani / Binding of serum 37 to linear peptides of protein X1 of SARS-CoV Urbani / Binding of serum 6 to looped/cyclic peptide (PEPSCAN-ELISA) / Binding of serum 37 to looped/cyclic peptide (PEPSCAN-ELISA) / Binding of serum 37 to looped/cyclic peptides of protein X1 of SARS-CoV Urbani / Binding of serum 6 to linear peptides of protein X2 / Binding of serum 37 to linear peptides of protein X2 / Binding of serum 37 to looped/cyclic peptides of protein X2 of SARS-CoV Urbani / Binding of serum 6 to linear peptides of protein M of SARS-CoV Urbani / Binding of serum 37 to linear peptides of protein M of SARS-CoV Urbani / Binding of serum 6 to looped/cyclic peptides of protein M of SARS-CoV Urbani / Binding of serum 37 to looped/cyclic peptides of protein M of SARS-CoV Urbani / Binding of serum 6 to linear peptides of protein X3 of SARS-CoV Urbani / Binding of serum 37 to linear peptides of protein X3 of SARS-CoV Urbani / Binding of serum 37 to looped/cyclic peptides of protein X3 of SARS-CoV Urbani / Binding of serum 6 to linear peptides of protein X4 of SARS-CoV Urbani / Binding of serum 37 to linear peptides of protein X4 of SARS-CoV Urbani / Binding of serum 37 to looped/cyclic peptides of protein X4 of SARS-CoV Urbani / Binding of serum 6 to linear peptides of protein X5 of SARS-CoV Urbani / Binding of serum 37 to linear peptides of protein X5 of SARS-CoV Urbani / Binding of serum 37 to looped/cyclic peptides of protein X5 of SARS-CoV Urbani / Binding of serum 6 to linear peptides of protein N of SARS-CoV Urbani / Binding of serum 37 to linear peptides of protein N of SARS-CoV Urbani / Binding of serum 6 to linear peptide (PEPSCAN-ELISA) / Binding of serum 1a to looped/cyclic peptides of protein N of SARS-CoV Urbani / Binding of serum 1b to looped/cyclic peptides of protein N of SARS-CoV Urbani / Binding of serum 2 to looped/cyclic peptides of protein N of SARS-CoV Urbani / Binding of serum 6 to looped/cyclic peptides of protein N of SARS-CoV Urbani / Binding of serum 37 to looped/cyclic peptides of protein N of SARS-CoV Urbani / Binding of serum 62 to looped/cyclic peptides of protein N of SARS-CoV Urbani / Binding of serum London to looped/cyclic peptides of protein N of SARS-CoV Urbani / Binding of serum SARS-green to looped/cyclic peptides of protein N of SARS-CoV Urbani: unit not given here.

The subject of assay [2] is control sera (pooled serum of ten healthy LUMC hospital workers; commercial negative donor pooled serum from the Dutch bloodbank). It counts as binding, human. More on the design: Binding of Control serum LUMC to linear peptides / Binding of Control serum Blood-bank to linear peptides / Binding of Control serum LUMC to looped peptides / Binding of Control Serum Blood-Bank to Looped peptides / Binding of Control serum LUMC to linear peptides of the protein M of SARS-CoV Urbani / Binding of Control serum Blood-bank to linear peptides of the protein M of SARS-CoV Urbani / Binding of Control serum LUMC to looped peptides of the protein M of SARS-CoV Urbani / Binding of Control Serum Blood-Bank to Looped peptides of the protein M of SARS-CoV Urbani: unit not given here.

For assay [3], the system named is rabbit serum obtained by immunizing a rabbit with the SARS-CoV strain Frankfurt 1. It is filed as binding. More on the design: Binding of a rabbit serum to linear peptides / Binding of a rabbit serum to looped peptides / Rabbit serum linear peptides / Rabbit serum looped peptides / Binding of a rabbit serum to linear peptides of protein N of SARS-CoV Urbani (Rabbit serum linear peptides) / Binding of a rabbit serum to looped/cyclic peptides of protein N of SARS-CoV Urbani (Rabbit serum looped peptides): unit not given here.

For PKEITVATSRTLSYY, in assay [1], the “Binding of serum 1a to linear peptides of protein M of SARS-CoV Urbani” value came to 0.6, the “Binding of serum 1a to looped/cyclic peptides of protein M of SARS-CoV Urbani” value amounted to 0.6, the “Binding of serum 1b to linear peptides of protein M of SARS-CoV Urbani” value is 0.4 and the “Binding of serum 1b to looped/cyclic peptides of protein M of SARS-CoV Urbani” value is recorded as 0.6. Further, in assay [1], the “Binding of serum 2 to linear peptides of protein M of SARS-CoV Urbani” value is given as 0.5, the “Binding of serum 2 to looped/cyclic peptides of protein M of SARS-CoV Urbani” value is 0.6, the “Binding of serum 6 to linear peptides of protein M of SARS-CoV Urbani” value was 0.2 and the “Binding of serum 6 to looped/cyclic peptides of protein M of SARS-CoV Urbani” value was 0.7. Further, in assay [1], the “Binding of serum 37 to linear peptides of protein M of SARS-CoV Urbani” value is recorded as 0.8, the “Binding of serum 37 to looped/cyclic peptides of protein M of SARS-CoV Urbani” value was 0.6, the “Binding of serum 62 to linear peptides of protein M of SARS-CoV Urbani” value is 0.7 and the “Binding of serum 62 to looped/cyclic peptides of protein M of SARS-CoV Urbani” value stood at 0.6. Moreover, in assay [1], the “Binding of serum London to linear peptides of protein M of SARS-CoV Urbani” value was 0.3, the “Binding of serum London to looped/cyclic peptides of protein M of SARS-CoV Urbani” value is listed as 0.2, the “Binding of serum SARS-green to linear peptides of protein M of SARS-CoV Urbani” value is given as 0.1 and the “Binding of serum SARS-green to looped/cyclic peptides of protein M of SARS-CoV Urbani” value is 0.4. In addition, in assay [1], the “Binding of serum SARS-yellow to linear peptides of protein M of SARS-CoV Urbani” value was 0.1 and the “Binding of serum SARS-yellow to looped/cyclic peptides of protein M of SARS-CoV Urbani” value is 0.4. Besides, in assay [2], the “Binding of Control Serum Blood-Bank to Looped peptides of the protein M of SARS-CoV Urbani” value came out at 0.6, the “Binding of Control serum Blood-bank to linear peptides of the protein M of SARS-CoV Urbani” value worked out at 0.5, the “Binding of Control serum LUMC to linear peptides of the protein M of SARS-CoV Urbani” value was found to be 0.3 and the “Binding of Control serum LUMC to looped peptides of the protein M of SARS-CoV Urbani” value is listed as 0.6. Further, in assay [3], the “Rabbit serum linear peptides” value stood at 0.5 and the “Rabbit serum looped peptides” value was determined as 0.2.

Regarding PKFTTSLSLHKLLQT, in assay [1], the “Binding of serum 1a to linear peptides of protein X2” value is 0.6, the “Binding of serum 1a to looped/cyclic peptides of protein X2 of SARS-CoV Urbani” value is listed as 0.5, the “Binding of serum 1b to linear peptides of protein X2” value came out at 0.4 and the “Binding of serum 1b to looped/cyclic peptides of protein X2 of SARS-CoV Urbani” value was determined as 0.4. Further, in assay [1], the “Binding of serum 2 to linear peptides of protein X2” value came out at 0.5, the “Binding of serum 2 to looped/cyclic peptides of protein X2 of SARS-CoV Urbani” value was 0.3, the “Binding of serum 6 to linear peptides of protein X2” value is listed as 0.3 and the “Binding of serum 6 to looped/cyclic peptides of protein X2 of SARS-CoV Urbani” value came to 0.3. In addition, in assay [1], the “Binding of serum 37 to linear peptides of protein X2” value came to 0.5, the “Binding of serum 37 to looped/cyclic peptides of protein X2 of SARS-CoV Urbani” value is reported as 0.4, the “Binding of serum 62 to linear peptides of protein X2” value stood at 0.6 and the “Binding of serum 62 to looped/cyclic peptides of protein X2 of SARS-CoV Urbani” value turned out to be 0.6. Moreover, in assay [1], the “Binding of serum London to linear peptides of protein X2” value was 0.4, the “Binding of serum London to looped/cyclic peptides of protein X2 of SARS-CoV Urbani” value stood at 0.3, the “Binding of serum SARS-green to linear peptides of protein X2” value was 0.5 and the “Binding of serum SARS-green to looped/cyclic peptides of protein X2 of SARS-CoV Urbani” value worked out at 0.3. In addition, in assay [1], the “Binding of serum SARS-yellow to linear peptides of protein X2” value is recorded as 0.3 and the “Binding of serum SARS-yellow to looped/cyclic peptides of protein X2 of SARS-CoV Urbani” value worked out at 0.3. Further, in assay [2], the “Binding of Control Serum Blood-Bank to Looped peptides” value is 0.7, the “Binding of Control serum Blood-bank to linear peptides” value came out at 0.7, the “Binding of Control serum LUMC to linear peptides” value was found to be 0.4 and the “Binding of Control serum LUMC to looped peptides” value is recorded as 0.4. Also, in assay [3], the “Binding of a rabbit serum to linear peptides” value is listed as 0.2 and the “Binding of a rabbit serum to looped peptides” value is 0.4.

Turning to PLFLIVAALVFLILC, in assay [1], the “Binding of serum 1a to linear peptides of protein X4 of SARS-CoV Urbani” value worked out at 0.5, the “Binding of serum 1a to looped/cyclic peptides of protein X4 of SARS-CoV Urbani” value is given as 0.5, the “Binding of serum 1b to linear peptides of protein X4 of SARS-CoV Urbani” value is 0.4 and the “Binding of serum 1b to looped/cyclic peptides of protein X4 of SARS-CoV Urbani” value amounted to 0.1. In addition, in assay [1], the “Binding of serum 2 to linear peptides of protein X4 of SARS-CoV Urbani” value is 0.3, the “Binding of serum 2 to looped/cyclic peptides of protein X4 of SARS-CoV Urbani” value came out at 0.2, the “Binding of serum 6 to linear peptides of protein X4 of SARS-CoV Urbani” value turned out to be 0.3 and the “Binding of serum 6 to looped/cyclic peptides of protein X4 of SARS-CoV Urbani” value was found to be 0.5. For the same sequence, in assay [1], the “Binding of serum 37 to linear peptides of protein X4 of SARS-CoV Urbani” value worked out at 0.6, the “Binding of serum 37 to looped/cyclic peptides of protein X4 of SARS-CoV Urbani” value came out at 0.0, the “Binding of serum 62 to linear peptides of protein X4 of SARS-CoV Urbani” value came out at 0.7 and the “Binding of serum 62 to looped/cyclic peptides of protein X4 of SARS-CoV Urbani” value was 0.1. Also, in assay [1], the “Binding of serum London to linear peptides of protein X4 of SARS-CoV Urbani” value was 0.6, the “Binding of serum London to looped/cyclic peptides of protein X4 of SARS-CoV Urbani” value is 0.1, the “Binding of serum SARS-green to linear peptides of protein X4 of SARS-CoV Urbani” value came out at 0.5 and the “Binding of serum SARS-green to looped/cyclic peptides of protein X4 of SARS-CoV Urbani” value came to 0.2. Further, in assay [1], the “Binding of serum SARS-yellow to linear peptides of protein X4 of SARS-CoV Urbani” value was 0.4 and the “Binding of serum SARS-yellow to looped/cyclic peptides of protein X4 of SARS-CoV Urbani” value is reported as 0.1. Besides, in assay [2], the “Binding of Control Serum Blood-Bank to Looped peptides” value is recorded as 0.5, the “Binding of Control serum Blood-bank to linear peptides” value was found to be 0.4, the “Binding of Control serum LUMC to linear peptides” value came out at 0.4 and the “Binding of Control serum LUMC to looped peptides” value is listed as 0.5. Besides, in assay [3], the “Rabbit serum linear peptides” value is recorded as 0.4 and the “Rabbit serum looped peptides” value is recorded as 0.0.

With PLMESELVIGAVIIR, in assay [1], the “Binding of serum 1a to linear peptides of protein M of SARS-CoV Urbani” value is on record as 0.7, the “Binding of serum 1a to looped/cyclic peptides of protein M of SARS-CoV Urbani” value was 0.7, the “Binding of serum 1b to linear peptides of protein M of SARS-CoV Urbani” value amounted to 0.6 and the “Binding of serum 1b to looped/cyclic peptides of protein M of SARS-CoV Urbani” value turned out to be 0.6. In addition, in assay [1], the “Binding of serum 2 to linear peptides of protein M of SARS-CoV Urbani” value stood at 0.7, the “Binding of serum 2 to looped/cyclic peptides of protein M of SARS-CoV Urbani” value came out at 0.7, the “Binding of serum 6 to linear peptides of protein M of SARS-CoV Urbani” value came to 0.4 and the “Binding of serum 6 to looped/cyclic peptides of protein M of SARS-CoV Urbani” value is recorded as 0.8. In assay [1], the “Binding of serum 37 to linear peptides of protein M of SARS-CoV Urbani” value is reported as 0.7, the “Binding of serum 37 to looped/cyclic peptides of protein M of SARS-CoV Urbani” value is 0.8, the “Binding of serum 62 to linear peptides of protein M of SARS-CoV Urbani” value turned out to be 0.5 and the “Binding of serum 62 to looped/cyclic peptides of protein M of SARS-CoV Urbani” value turned out to be 0.8. Further, in assay [1], the “Binding of serum London to linear peptides of protein M of SARS-CoV Urbani” value stood at 0.3, the “Binding of serum London to looped/cyclic peptides of protein M of SARS-CoV Urbani” value came to 0.2, the “Binding of serum SARS-green to linear peptides of protein M of SARS-CoV Urbani” value amounted to 0.5 and the “Binding of serum SARS-green to looped/cyclic peptides of protein M of SARS-CoV Urbani” value is recorded as 0.3. For the same sequence, in assay [1], the “Binding of serum SARS-yellow to linear peptides of protein M of SARS-CoV Urbani” value is reported as 0.2 and the “Binding of serum SARS-yellow to looped/cyclic peptides of protein M of SARS-CoV Urbani” value stood at 0.7. Further, in assay [2], the “Binding of Control Serum Blood-Bank to Looped peptides of the protein M of SARS-CoV Urbani” value stood at 0.9, the “Binding of Control serum Blood-bank to linear peptides of the protein M of SARS-CoV Urbani” value was 1.0, the “Binding of Control serum LUMC to linear peptides of the protein M of SARS-CoV Urbani” value is 0.8 and the “Binding of Control serum LUMC to looped peptides of the protein M of SARS-CoV Urbani” value is 0.8. In assay [3], the “Rabbit serum linear peptides” value turned out to be 0.2 and the “Rabbit serum looped peptides” value was found to be 0.1.
